The record followed here is patent US9580463B2 (BRISTOL-MYERS SQUIBB COMPANY, priority 2013, dated 2017).

The first experiment has as its system HCV genotype 1b (Con1) replicon in HUH-7 cells. Description: HCV replicon luciferase reporter assay, genotype 1b. It counts as cell-based. The conditions noted are these: Hepatitis C virus, 72 h, genotype 1b replicon, 3 days incubation, read-out: LE_1b (EC50). From the text:
An HCV replicon whole cell system was established as described by Lohmann V, Korner F, Koch J, Herian U, Theilmann L, Bartenschlager R., Science 285(5424):110-3 (1999) and modified to introduce a luciferase reporter, as first described by Krieger et al (Krieger N, Lohmann V, and Bartenschlager R, J. Virol. 75(10):4614-4624 (2001)). CDNA encoding a humanized form of the Renilla luciferase gene and a linker sequence fused directly to the 3′-end of the luciferase gene were introduced into the replicon construct using an Asc1 restriction site located in core, directly upstream of the neomycin marker gene. The adaptive mutation at position 1179 (serine to isoleucine) was also introduced (Blight K J, Kolykhalov, A A, Rice, C M, Science 290(5498):1972-1974). A stable cell line constitutively expressing this HCV replicon construct was generated by first linearizing plasmid DNAs with ScaI. RNA transcripts were synthesized in vitro using the T7 MegaScript transcription kit (Ambion, Austin, Tex.) according to manufacturer's directions. In vitro transcripts of the cDNA were transfected into the human hepatoma cell line, HUH-7. […] Resulting cell lines were characterized for positive and negative strand RNA production and protein production over time. […]
HCV replicon luciferase assays were developed to monitor the inhibitory effects of compounds described in the disclosure on HCV genotypes 1a and 1b viral replication. HUH-7 cells, constitutively expressing the HCV replicon, were grown in Dulbecco's Modified Eagle Media (DMEM) (Gibco-BRL) containing 10% Fetal calf serum (FCS) (Sigma) and 1 mg/mL G418 (Gibco-BRL). Compounds were serially diluted 3 folds in DMSO for a twenty-point titration and subsequently transferred to sterile 384-well tissue-culture treated plates (Corning cat #3571). The plates were then seeded with 50 μL of cells at a density of 3.0×10^3 cells/well in DMEM containing 4% FCS (final DMSO concentration at 0.5%). After 3 days incubation at 37° C., cells were analyzed for Renilla Luciferase activity using the EnduRen as substrate (Promega cat #E6485). The EnduRen substrate was diluted in DMEM and then added to the plates to a final concentration of 7.5 μM. The plates were incubated for 2 hrs at 37° C. and then read immediately for 30 seconds with Viewlux Imager (PerkinElmer) using a luminescence program. To assess cytotoxicity of compounds, CC50 values were generated by multiplexing the EnduRen-containing plates with Cell Titer-Blue (Promega, cat # G8082). Cell-Titer Blue (3 μL) was added to each well and incubated for 8 hrs at 37° C. The fluorescence signal from each well was read, with an excitation wavelength at 525/10 nm and an emission wavelength of 598/10 nm, using the Viewlux Imager.
The EC50 values for compounds were calculated by using a four-parameter logistic equation: y=A+((B−A)/(1+((C/x)^D))), where A and B denotes minimal and maximal % inhibition, respectively, C is the EC50, D is the hill slope and x represents compound concentration.
Background: In antiviral work, replicon cells carry a viral genome segment that copies itself.
As a reminder, the EC50 is the concentration needed to bring the measured effect to its halfway point. For `COC[C@@H]1C[C@H](C)CC/C=C\[C@@H]2C[C@@]2(C(=O)NS(=O)(=O)C2(C)CC2)NC(=O)[C@@H]2C[C@@H](Oc3nc4cc(OC)c(F)cc4nc3C(F)(F)F)CN2C(=O)[C@H]1NC(=O)OC(C)(C)C(F)(F)F` [Compound 1048, 1,1,1-trifluoro-2-methylpropan-2-yl ((2R,6S,7R,9R,13aS,14aR,16aS,Z)-2-((6-fluoro-7-methoxy-3-(trifluoromethyl)quinoxalin-2-yl)oxy)-7-(methoxymethyl)-9-methyl-14a-(((1-methylcyclopropyl)sulfonyl)carbamoyl)-5,16-dioxo-1,2,3,5,6,7,8,9,10,11,13a,14,14a,15,16,16a-hexadecahydrocyclopropa[e]pyrrolo[1,2-a][1,4]diazacyclopentadecin-6-yl)carbamate], the EC50 was found to be 0.27 nM.

The same experiment, now with this note: Hepatitis C virus, 72 h, genotype 1b replicon, 3 days incubation, read-out: LE_1b (EC50, range).
Turning to `COC[C@@H]1C[C@@H](C)CC/C=C\[C@@H]2C[C@@]2(C(=O)NS(=O)(=O)C2(C)CC2)NC(=O)[C@@H]2C[C@@H](Oc3nc4cc(OC)c(F)cc4nc3C(F)(F)F)CN2C(=O)[C@H]1NC(=O)OC(C)(C)C` [Compound 1045, tert-butyl ((2R,6S,7R,9S,13aS,14aR,16aS,Z)-2-((6-fluoro-7-methoxy-3-(trifluoromethyl)quinoxalin-2-yl)oxy)-7-(methoxymethyl)-9-methyl-14a-(((1-methylcyclopropyl)sulfonyl)carbamoyl)-5,16-dioxo-1,2,3,5,6,7,8,9,10,11,13a,14,14a,15,16,16a-hexadecahydrocyclopropa[e]pyrrolo[1,2-a][1,4]diazacyclopentadecin-6-yl)carbamate], the EC50 lay within 1.01 to 5 nM.

On to `COC[C@@H]1C[C@@H](C)CC/C=C\[C@@H]2C[C@@]2(C(=O)NS(=O)(=O)C2(C)CC2)NC(=O)[C@@H]2C[C@@H](Oc3nc4cc(OC)c(F)cc4nc3C(F)(F)F)CN2C(=O)[C@H]1NC(=O)OC(C)(C)C(F)(F)F` [Compound 1046, 1,1,1-trifluoro-2-methylpropan-2-yl ((2R,6S,7R,9S,13aS,14aR,16aS,Z)-2-((6-fluoro-7-methoxy-3-(trifluoromethyl)quinoxalin-2-yl)oxy)-7-(methoxymethyl)-9-methyl-14a-(((1-methylcyclopropyl)sulfonyl)carbamoyl)-5,16-dioxo-1,2,3,5,6,7,8,9,10,11,13a,14,14a,15,16,16a-hexadecahydrocyclopropa[e]pyrrolo[1,2-a][1,4]diazacyclopentadecin-6-yl)carbamate], for which the EC50 was in the range of 1.01 to 5 nM.

For `COC[C@@H]1C[C@H](C)CC/C=C\[C@@H]2C[C@@]2(C(=O)NS(=O)(=O)C2(C)CC2)NC(=O)[C@@H]2C[C@@H](Oc3nc4cc(OC)c(F)cc4nc3C(F)(F)F)CN2C(=O)[C@H]1NC(=O)OC(C)(C)C` [Compound 1047, tert-butyl ((2R,6S,7R,9R,13aS,14aR,16aS,Z)-2-((6-fluoro-7-methoxy-3-(trifluoromethyl)quinoxalin-2-yl)oxy)-7-(methoxymethyl)-9-methyl-14a-(((1-methylcyclopropyl)sulfonyl)carbamoyl)-5,16-dioxo-1,2,3,5,6,7,8,9,10,11,13a,14,14a,15,16,16a-hexadecahydrocyclopropa[e]pyrrolo[1,2-a][1,4]diazacyclopentadecin-6-yl)carbamate], the EC50 fell in the range of 0.51 to 1 nM. On the same count and under the same terms, under `COC[C@@H]1C[C@H](C)CC/C=C\[C@@H]2C[C@@]2(C(=O)NS(=O)(=O)C2(C)CC2)NC(=O)[C@@H]2C[C@@H](Oc3nc4cc(OC)c(F)cc4nc3C(F)(F)F)CN2C(=O)[C@H]1NC(=O)OC(C)(C)C(F)(F)F` [Compound 1048, 1,1,1-trifluoro-2-methylpropan-2-yl ((2R,6S,7R,9R,13aS,14aR,16aS,Z)-2-((6-fluoro-7-methoxy-3-(trifluoromethyl)quinoxalin-2-yl)oxy)-7-(methoxymethyl)-9-methyl-14a-(((1-methylcyclopropyl)sulfonyl)carbamoyl)-5,16-dioxo-1,2,3,5,6,7,8,9,10,11,13a,14,14a,15,16,16a-hexadecahydrocyclopropa[e]pyrrolo[1,2-a][1,4]diazacyclopentadecin-6-yl)carbamate] stands 0.1 to 0.5 nM; under `CCOc1ccc2nc(C(F)(F)F)c(O[C@@H]3C[C@H]4C(=O)N[C@]5(C(=O)NS(=O)(=O)C6(C)CC6)C[C@H]5/C=C\CC[C@H](C)C[C@@H](COC)[C@H](NC(=O)OC(C)(C)C)C(=O)N4C3)nc2c1` [Compound 1049, tert-butyl ((2R,6S,7R,9S,13aS,14aR,16aS,Z)-2-((7-ethoxy-3-(trifluoromethyl)quinoxalin-2-yl)oxy)-7-(methoxymethyl)-9-methyl-14a-(((1-methylcyclopropyl)sulfonyl)carbamoyl)-5,16-dioxo-1,2,3,5,6,7,8,9,10,11,13a,14,14a,15,16,16a-hexadecahydrocyclopropa[e]pyrrolo[1,2-a][1,4]diazacyclopentadecin-6-yl)carbamate], 1.01 to 5 nM.
